pIC50: −log10 of the molar value.

Test [1] has as its target T1, dUTPase (Homo sapiens, UniProt P33316).
T1 construct: gene DUT; human recombinant dUTPase
T1 sequence (P33316 70-252): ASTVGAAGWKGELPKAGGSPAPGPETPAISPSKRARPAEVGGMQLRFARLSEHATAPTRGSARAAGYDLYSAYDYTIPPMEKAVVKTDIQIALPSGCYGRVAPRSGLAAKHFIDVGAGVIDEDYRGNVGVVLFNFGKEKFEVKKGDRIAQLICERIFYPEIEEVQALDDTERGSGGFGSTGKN
Put plainly: malachite green assay of substrate hydrolysis by purified enzyme. The format is biochemical.

Test [2] addresses T1, dUTPase. Kind of test: malachite green activity assay with dUTP as substrate, purified recombinant enzyme. The format is biochemical.

With `O=c1[nH]c(=O)n([C@H]2C[C@H](O)[C@@H](COP(=O)(O)OP(=O)(O)OP(=O)(O)O)O2)cc1F` [5-FdUTP], the “malachite green assay of substrate hydrolysis by purified enzyme” value on dUTPase [1] is reported as 5.5 μM formed PPi per second per μM enzyme.

As a reminder, the pIC50 is −log10 of the IC50, conventionally taken in molar units. For the compound `O=C(CCCn1ccc(=O)[nH]c1=O)N1CCC[C@H]1C(c1ccccc1)c1ccccc1` [compound 1], the negative-log IC50 (pIC50) on dUTPase [2] is 6.13.

Consider `CC(NS(=O)(=O)CCCOCn1ccc(=O)[nH]c1=O)c1cccc(OC2CCCC2)c1` (stereo not shown) [compound 2], for which the pIC50 at dUTPase [2] was 7.60.

For `O=c1ccn([C@H]2C[C@H](O)[C@@H](COP(=O)(O)OP(=O)(O)OP(=O)(O)O)O2)c(=O)[nH]1` [dUTP], the “malachite green assay of substrate hydrolysis by purified enzyme” value at dUTPase [1] is recorded as 6.6 μM formed PPi per second per μM enzyme.

Values taken from paper PMC5410339, “dUTPase inhibition augments replication defects of 5-Fluorouracil” (Oncotarget, 2017).
